# Experimental data reported in article PMC12162873, “Modulating phosphatase DUSP22 with BML-260 ameliorates skeletal muscle wasting via Akt independent JNK-FOXO3a repression” (EMBO Molecular Medicine, 2025).
# “And” between values parts separate entries of the source, which are not always exact repeats. Equal entries are not always repeated. “Also recorded” adds a separate entry of the source. Where two headings read alike, the source gives them in different places.
# How the values were obtained:
# GST-tagged-DUSP22 = target: T1, GST-tagged-DUSP22 (Homo sapiens, UniProt Q9NRW4); assay: DUSP22 phosphatase activity assay (EnzChek kit, DiFMUP substrate); type: biochemical; conditions: 45 min at room temperature, read-out: IC50, inhibition of DUSP22 activity
# T1 construct: purchased Sigma-Aldrich SRP5021
# T1 sequence (Q9NRW4 1-184): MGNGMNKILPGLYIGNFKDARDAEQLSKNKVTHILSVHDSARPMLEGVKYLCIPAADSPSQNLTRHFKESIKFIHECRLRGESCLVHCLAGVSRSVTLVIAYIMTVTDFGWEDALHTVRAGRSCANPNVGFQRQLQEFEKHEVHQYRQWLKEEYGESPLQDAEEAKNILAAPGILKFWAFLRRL
# Description: The phosphatase activity of purified DUSP22 was measured using the EnzChek® Phosphatase Assay Kit (E12020, ThermoFisher, MA, USA) following the manufacturer’s instructions. In brief, for the assay a 200 µM 6,8-difluoro-4-methylumbelliferyl phosphate (DiFMUP) working solution was prepared. 50 µL DiFMUP solution was added to each well of a black-walled microplate, followed by a 50 µL sample containing GST-tagged-DUSP22 (SRP5021, Sigma-Aldrich, MO, USA) or 1X reaction buffer, to give a total reaction volume of 100 µL per well. BML-260 and 1X reaction buffer in a 50 µL volume were then added to each well. The microplate was incubated at room temperature for 45 min in the dark and fluorescence was measured at excitation 360 nm and emission 455 nm (SpectraMAX Gemini XS, Molecular Devices, CA, USA).
# A) Phosphatase activity assay for DUSP22 and inhibition by BML-260. […] (n=4) B) CB-Dock2 molecular docking analysis of BML-260 binding to the active site of DUSP22, DUSP22 with an active site mutation (at C88S), and DUSP15, which is a DUSP member with the highest homology with DUSP22 (as assessed by sequence alignment).
# BML-260 binding. BML-260 bound DUSP15 at the interface of the A and B chain, distinct from the predicted active site at position 85. n represents technical replicates analyzed by Stu-dent’s t test. […]
# [1] = Pharmacokinetics analysis, plasma (LC-MS/MS); type: in vivo, mouse; set-up: peak plasma concentration after injection: unit not given here; conditions: for Plasma Conc. / Plasma Conc., Mean / concentration at 0.25 h / concentration at 0.5 h / concentration at 1.5 h / concentration at 2 h / concentration at 8 h: 5 mg/kg (IP); for concentration at 0.25 h / concentration at 0.5 h / concentration at 1.5 h / concentration at 2 h / concentration at 8 h: intraperitoneal, 5 mg/kg
# Description: Assessment of BML-260 pharmacokinetics (PK) was carried out by the company Chaon, Yongin-si, Republic of Korea. BML-260 was administered intraperitoneally at a dose of 5 mg/kg in an injection volume of 10 mL/kg. A total of 21 6-week-old male C57BL/6J mice were divided into two groups as follows: 1) PK (plasma) group (3 mice) and 2) PK (TA muscle) group (18 mice across 6 time points).
# […] Blood was centrifuged to obtain plasma that was then stored at −80 °C. For the PK (TA muscle) group, mice were euthanized at 0.5, 1, 1.5, 2, 6, and 12 h post-administration. The TA muscle was weighed and stored at −80 °C.
# BML-260 levels in plasma and tissue samples were analyzed with liquid chromatography-tandem mass spectrometry (LC-MS/MS) using an Agilent 1200 HPLC system coupled with an AB Sciex 4000 QTrap MS/MS (Agilent Technologies, CA, USA). Quantification limits were determined based on a signal-to-noise ratio greater than 10, with precision below 20% and accuracy between 80% and 120%.
smiles,measurement,setting,value
O=C(O)c1ccc(N2C(=O)C(=Cc3ccccc3)SC2=S)cc1 (stereo in doubt) [BML-260],IC50,GST-tagged-DUSP22,54 µM
same,Plasma Conc.,"[1]; 0.25 h, individual animals",15.310 ng/mL and 14.890 ng/mL
same,Plasma Conc.,"[1]; 0.5 h, individual animals",9.450 ng/mL and 9.888 ng/mL
same,Plasma Conc.,"[1]; 1.5 h, individual animals",6.230 ng/mL and 6.772 ng/mL
same,Plasma Conc.,"[1]; 2 h, individual animals",5.288 ng/mL and 4.936 ng/mL
same,Plasma Conc.,"[1]; 8 h, individual animals",0.232 ng/mL and 0.333 ng/mL
same,Plasma Conc.,"[1]; 12 h, individual animals",BQL
same,"Plasma Conc., Mean","[1]; 12 h, n = 3",BQL
same,Plasma Conc.,"[1]; 24 h, individual animals",BQL
same,"Plasma Conc., Mean","[1]; 24 h, n = 3",BQL
same,detection in plasma after IP delivery,[1]; 5 mg/kg IP,detectable in the plasma immediately after intraperitoneal; also recorded: could be detected in the plasma
same,time by which plasma concentration is undetectable,"[1]; 5 mg/kg IP, as read by referee #2",~ 8 hours
same,peak plasma concentration after injection,"[1]; 5 mg/kg IP, as read by referee #2 from the PK figure",16
same,concentration at 0.25 h,"[1]; male, C57BL/6J, mouse, plasma, 0.25 h, individual animals, read-out: Plasma Conc.",18.1 ng/mL
same,concentration at 0.25 h,"[1]; male, C57BL/6J, mouse, plasma, 0.25 h, n = 3, read-out: Plasma Conc., Mean",16.1 ng/mL
same,concentration at 0.5 h,"[1]; male, C57BL/6J, mouse, plasma, 0.5 h, individual animals, read-out: Plasma Conc.",11.4 ng/mL
same,concentration at 0.5 h,"[1]; male, C57BL/6J, mouse, plasma, 0.5 h, n = 3, read-out: Plasma Conc., Mean",10.3 ng/mL
same,concentration at 1.5 h,"[1]; male, C57BL/6J, mouse, plasma, 1.5 h, individual animals, read-out: Plasma Conc.",6.66 ng/mL
same,concentration at 1.5 h,"[1]; male, C57BL/6J, mouse, plasma, 1.5 h, n = 3, read-out: Plasma Conc., Mean",6.55 ng/mL
same,concentration at 2 h,"[1]; male, C57BL/6J, mouse, plasma, 2 h, individual animals, read-out: Plasma Conc.",4.85 ng/mL
same,concentration at 2 h,"[1]; male, C57BL/6J, mouse, plasma, 2 h, n = 3, read-out: Plasma Conc., Mean",5.03 ng/mL
same,concentration at 8 h,"[1]; male, C57BL/6J, mouse, plasma, 8 h, individual animals, read-out: Plasma Conc.",0.248 ng/mL
same,concentration at 8 h,"[1]; male, C57BL/6J, mouse, plasma, 8 h, n = 3, read-out: Plasma Conc., Mean",0.271 ng/mL
same,half-life,"[1]; male, C57BL/6J, mouse, plasma, 5 mg/kg IP, as read by referee #2",~1 h
